Results reported in US11400079B2, “Antibacterial monobactams” (University of Notre Dame du Lac, priority 2017, dated 2022).
≈ marks a conversion by molar mass, not a printed value. Like-named read-outs stand apart in the source and are kept apart here.

Experiments:
Gram-negative bacteria = experiment: Antibacterial activity against tested Gram-negative strains (summary in words); assay type: cell-based; details: tested strains of Gram-negative bacteria
Experimental: (§1) General Methods. All solvents and reagents were obtained from commercial sources and used without further purification unless otherwise stated. General methods of purification of compounds involved the use column chromatography with silica gel (230-400 mesh) purchased from Silicycle, Quebec City, Canada. The reactions were monitored by TLC on precoated Merck 60 F254 silica gel plates and visualized using UV light (254 nm).
(§2) Antibacterial assays were performed using iron depleted media as described previously (J. Med. Chem. 2017, 60, 4577).

P. aeruginosa ISR-14-003 = experiment: MIC antibacterial assay (iron depleted media); assay type: cell-based; details: Pseudomonas aeruginosa, ISR14003, P. aeruginosa ISR-14-003 (clinical isolate)
Experimental: as §1, §2

[1] = system: A. baumannii ATCC17978-PNT-165; experiment: MIC antibacterial assay (iron depleted media); assay type: cell-based; details: Acinetobacter baumannii
Experimental: as §1, §2

[2] = system: A. baumannii ATCC BAA 1797; experiment: MIC antibacterial assay (iron depleted media); assay type: cell-based; details: Acinetobacter baumannii, BAA1797; A. baumannii ATCC BAA 1797; MH2 broth with 160 μM bipyridyl added; read-out: MIC
Experimental: as §1, §2

P. aeruginosa ISR-14-004 = experiment: MIC antibacterial assay (iron depleted media); assay type: cell-based; details: Pseudomonas aeruginosa, ISR14004, P. aeruginosa ISR-14-004 (clinical isolate)
Experimental: as §1, §2

P. aeruginosa ARC 3506 = experiment: MIC antibacterial assay (iron depleted media); assay type: cell-based; details: Pseudomonas aeruginosa, ARC3506; P. aeruginosa ARC 3506; compound alone; MH2 broth with 160 μM bipyridyl added; read-out: MIC
Experimental: as §1, §2

Proteus mirabilis X235 = experiment: MIC antibacterial assay (iron depleted media); assay type: cell-based; details: Proteus mirabilis X235; MH2 broth with 160 μM bipyridyl added; read-out: MIC
Experimental: as §1, §2

E. coli DCO = experiment: MIC antibacterial assay (iron depleted media); assay type: cell-based; details: Escherichia coli; E. coli DCO; MH2 broth with 160 μM bipyridyl added; read-out: MIC
Experimental: as §1, §2

A. baumannii ATCC 17961 = experiment: MIC antibacterial assay (iron depleted media); assay type: cell-based; details: Acinetobacter baumannii, ATCC17961; A. baumannii ATCC 17961; MH2 broth with 160 μM bipyridyl added; read-out: MIC
Experimental: as §1, §2

[3] = system: Enterobacter aerogenes X816; experiment: MIC antibacterial assay (iron depleted media); assay type: cell-based; details: Klebsiella aerogenes; Enterobacter aerogenes X816; MH2 broth with 160 μM bipyridyl added; read-out: MIC
Experimental: as §1, §2

[4] = system: Salmonella typhimurium ATCC13311; experiment: MIC antibacterial assay (iron depleted media); assay type: cell-based; details: Salmonella enterica; Salmonella typhimurium ATCC13311; MH2 broth with 160 μM bipyridyl added; read-out: MIC
Experimental: as §1, §2

P. aeruginosa KW799/wt = experiment: MIC antibacterial assay (iron depleted media); assay type: cell-based; details: Pseudomonas aeruginosa; P. aeruginosa KW799/wt; MH2 broth with 160 μM bipyridyl added; read-out: MIC
Experimental: as §1, §2

[5] = system: Citrobacter freuendii ATCC 29063; experiment: MIC antibacterial assay (iron depleted media); assay type: cell-based; details: ATCC29063; Citrobacter freuendii ATCC 29063; MH2 broth with 160 μM bipyridyl added; read-out: MIC
Experimental: as §1, §2

P. aeruginosa ARC 3502 = experiment: MIC antibacterial assay (iron depleted media); assay type: cell-based; details: Pseudomonas aeruginosa
Experimental: as §1, §2

S. aureus SG 511 = experiment: MIC antibacterial assay (iron depleted media); assay type: cell-based; details: Staphylococcus aureus, SG511; S. aureus SG 511; MH2 broth with 160 μM bipyridyl added; read-out: MIC
Experimental: as §1, §2

B. dolosa AU0018 = experiment: MIC antibacterial assay (iron depleted media); assay type: cell-based; details: Burkholderia dolosa; B. dolosa AU0018; MH2 broth with 160 μM bipyridyl added; read-out: MIC
Experimental: as §1, §2

P. aeruginosa 01 = experiment: MIC antibacterial assay (iron depleted media); assay type: cell-based; details: Pseudomonas aeruginosa; P. aeruginosa 01; MH2 broth with 160 μM bipyridyl added; read-out: MIC
Experimental: as §1, §2

[6] = system: A. baumannii ATCC BAA 1800; experiment: MIC antibacterial assay (iron depleted media); assay type: cell-based, Acinetobacter baumannii; details: Acinetobacter baumannii, BAA1800, MH2 broth with 160 μM bipyridyl added
Experimental: as §1, §2

[7] = system: A. baumannii ATCC 17978-PNT-320; experiment: MIC antibacterial assay (iron depleted media); assay type: cell-based, Acinetobacter baumannii; details: Acinetobacter baumannii, ATCC17978
Experimental: as §1, §2

A.baumannii ISR14-005 = experiment: MIC antibacterial assay (iron depleted media); assay type: cell-based, Acinetobacter baumannii; details: Acinetobacter baumannii, ISR14005, A. baumannii ISR14-005 (clinical isolate)
Experimental: as §1, §2

[8] = system: strong β-lactamase producing strains of P. aeruginosa (ARC 3502 and ARC 3506); experiment: Antibacterial activity, alone and in combination with tazobactam; assay type: cell-based; details: co-administration with tazobactam
Experimental: as §1, §2

[9] = system: β-lactamase producing strains of A. baumannii; experiment: Antibacterial activity in combination with tazobactam; assay type: cell-based, Acinetobacter baumannii; details: combinations with tazobactam
Experimental: as §1, §2

[10] = compound alone, MH2 broth with 160 μM bipyridyl added, read-out: MIC
[11] = in combination with tazobactam, read-out: MIC (+tazo)

## CC(C)(O/N=C(\C(=O)NC1C(=O)N(S(=O)(=O)O)C1CSCCNC(=O)CN(CCCCNC(=O)c1cccc(O)c1O)C(=O)c1cccc(O)c1O)c1cnc(N)s1)C(=O)O (racemic) [Compound 42, (E)-2-(((1-(2-Aminothiazol-5-yl)-2-((2-(8-(2,3-dihydroxybenzoyl)-14-(2,3-dihydroxyphenyl)-6,14-dioxo-2-thia-5,8,13-triazatetradecyl)-4-oxo-1-sulfoazetidin-3-yl)amino)-2-oxoethylidene)amino)oxy)-2-methylpropanoic acid]
Gram-negative bacteria
  antibacterial activity (in words): remarkably potent
P. aeruginosa ISR-14-003; [10]
  MIC: 1.6 µM (≈ 1.46 µg/mL)
P. aeruginosa ISR-14-003; [11]
  MIC: 1.6 µM
[1]
  MIC: 0.4 µM (≈ 0.364 µg/mL)
[2]
  MIC: 0.4 µM (≈ 0.364 µg/mL)
P. aeruginosa ISR-14-004; [10]
  MIC: 6 µM (≈ 5.47 µg/mL)
P. aeruginosa ISR-14-004; [11]
  MIC: 3 µM
P. aeruginosa ARC 3506
  MIC: > 50 µM
Proteus mirabilis X235
  MIC: < 0.025 µM
E. coli DCO
  MIC: < 0.025 µM
A. baumannii ATCC 17961
  MIC: 0.2 µM (≈ 0.182 µg/mL)
[3]
  MIC: 0.075 µM (≈ 0.0683 µg/mL)
[4]
  MIC: 0.025 µM (≈ 0.0228 µg/mL)
P. aeruginosa KW799/wt
  MIC: 0.4 µM (≈ 0.364 µg/mL)
[5]
  MIC: 0.05 µM (≈ 0.0455 µg/mL)
P. aeruginosa ARC 3502; ARC3502, compound alone, MH2 broth with 160 μM bipyridyl added, read-out: MIC
  MIC: > 50 µM
P. aeruginosa ARC 3502; ARC3502, in combination with tazobactam, plus some growth at 50, clear between 1.6-50, read-out: MIC (+tazo)
  MIC: 1.6 µM
S. aureus SG 511
  MIC: > 50 µM
B. dolosa AU0018
  MIC: > 50 µM
P. aeruginosa 01
  MIC: 0.4 µM (≈ 0.364 µg/mL)
[6]
  MIC: 0.1 to 0.4 µM (≈ 0.0911 to 0.364 µg/mL)
[7]
  MIC: 0.4 µM (≈ 0.364 µg/mL)
A.baumannii ISR14-005; [10]
  MIC: > 50 µM
A.baumannii ISR14-005; [11]
  MIC: 25 µM
[8]
  effect of combination with tazobactam on activity (in words): most improved activity
[9]
  effect of combination with tazobactam on activity (in words): most enhancement of activity
